The target in one test is Recombinant ROCK1 (Homo sapiens (Human), UniProt Q13464). Put plainly: Lance Ultra Kinase Assay, ROCK1 inhibition. Format: biochemical. The note with it: ATP at Km, 30 min pre-incubation, 1 h reaction.
Another test has as its system HepG2 cells. Put plainly: Cell-based phospholipidosis assay (LipidTOX Red). The note with it: Homo sapiens, 24 h, LipidTOX Red dye. The protocol:
HepG2 cells were dispensed into Collagen I-coated 96-well black wall/clear bottom assay plates at 5000 cells/90 μL/well.
The assay plates were then incubated at 37° C. for 24 h, […] of 8% paraformaldehyde (4% final) fixative solution containing 8 μg/ml Hoechst 33342 (4 ug/mL final) in DPBS was added to each well. After incubation at room temperature for 25 min, the assay plates were washed with DPBS. The assay plates were sealed and stored at 4° C. before imaging.
The fluorescence intensities (595 nm excitation, 615 nm emission for LipidTOX Red; 352 nm excitation, 461 nm emission for Hoechst 33342) were measured using an High Content Screening System (Operetta, PerkinElmer) with a 10×Fluor objective. […] Average intensities were subjected to Prism and EC50 were calculated.

For another test, the target named is Recombinant ROCK2 (Homo sapiens (Human), UniProt O75116). Put plainly: Lance Ultra Kinase Assay, ROCK2 inhibition. The note with it: ATP at Km, 30 min pre-incubation, 1 h reaction. Format: biochemical.
The next test concerns pMLC2. Put plainly: Cellular PD assay, pMLC2 in PASMC (western blot). Format: cell-based. The note with it: PASMC, 0.5 h; Human Pulmonary Artery Smooth Muscle Cells, 30 min incubation. As for the experimental part: (§1) PASMC (Human Pulmonary Artery Smooth Muscle Cells) were grown in Smooth Muscle Cell Growth medium (Promocell #C-22162). The cells were resuspended at 3×10^5 cells per well in 6-well plate in Smooth Muscle Cell Growth medium (Promocell #C-22162) and incubated compound concentration range: (10000/1111/333/111/37/12.3/4.1/0.41/0 nM) for 30 min.
(§2) Cells were then placed on ice and washed with ice-cold PBS. Cell lysates were prepared with 2×SDS. Separate proteins by SDS-PAGE 2 hr, transfer of proteins form gel to membrane 90 min, Blocking the membrane with 5% milk 1 hr and incubation in primary antibody overnight at 4° C., Incubate the membrane in HRP-conjugated secondary antibody diluted in blocking buffer (1:2000) for 1 hour at room temperature. Detection using Amersham ECL plus western blotting detection system (LAS4000). The purified product was analysed by SDS PAGE and the amount of target protein calculated by gray scanning by Multi-Gauge V3.0 software.

The subject of a further test is pMYPT1. Put plainly: Cellular PD assay, pMYPT1 in PASMC (western blot). Format: cell-based. The note with it: PASMC, 0.5 h; Human Pulmonary Artery Smooth Muscle Cells, 30 min incubation. The protocol:
as §1, §2

SMILES strings stand for the structures.

Sequence of Recombinant ROCK1 (Q13464 whole entry): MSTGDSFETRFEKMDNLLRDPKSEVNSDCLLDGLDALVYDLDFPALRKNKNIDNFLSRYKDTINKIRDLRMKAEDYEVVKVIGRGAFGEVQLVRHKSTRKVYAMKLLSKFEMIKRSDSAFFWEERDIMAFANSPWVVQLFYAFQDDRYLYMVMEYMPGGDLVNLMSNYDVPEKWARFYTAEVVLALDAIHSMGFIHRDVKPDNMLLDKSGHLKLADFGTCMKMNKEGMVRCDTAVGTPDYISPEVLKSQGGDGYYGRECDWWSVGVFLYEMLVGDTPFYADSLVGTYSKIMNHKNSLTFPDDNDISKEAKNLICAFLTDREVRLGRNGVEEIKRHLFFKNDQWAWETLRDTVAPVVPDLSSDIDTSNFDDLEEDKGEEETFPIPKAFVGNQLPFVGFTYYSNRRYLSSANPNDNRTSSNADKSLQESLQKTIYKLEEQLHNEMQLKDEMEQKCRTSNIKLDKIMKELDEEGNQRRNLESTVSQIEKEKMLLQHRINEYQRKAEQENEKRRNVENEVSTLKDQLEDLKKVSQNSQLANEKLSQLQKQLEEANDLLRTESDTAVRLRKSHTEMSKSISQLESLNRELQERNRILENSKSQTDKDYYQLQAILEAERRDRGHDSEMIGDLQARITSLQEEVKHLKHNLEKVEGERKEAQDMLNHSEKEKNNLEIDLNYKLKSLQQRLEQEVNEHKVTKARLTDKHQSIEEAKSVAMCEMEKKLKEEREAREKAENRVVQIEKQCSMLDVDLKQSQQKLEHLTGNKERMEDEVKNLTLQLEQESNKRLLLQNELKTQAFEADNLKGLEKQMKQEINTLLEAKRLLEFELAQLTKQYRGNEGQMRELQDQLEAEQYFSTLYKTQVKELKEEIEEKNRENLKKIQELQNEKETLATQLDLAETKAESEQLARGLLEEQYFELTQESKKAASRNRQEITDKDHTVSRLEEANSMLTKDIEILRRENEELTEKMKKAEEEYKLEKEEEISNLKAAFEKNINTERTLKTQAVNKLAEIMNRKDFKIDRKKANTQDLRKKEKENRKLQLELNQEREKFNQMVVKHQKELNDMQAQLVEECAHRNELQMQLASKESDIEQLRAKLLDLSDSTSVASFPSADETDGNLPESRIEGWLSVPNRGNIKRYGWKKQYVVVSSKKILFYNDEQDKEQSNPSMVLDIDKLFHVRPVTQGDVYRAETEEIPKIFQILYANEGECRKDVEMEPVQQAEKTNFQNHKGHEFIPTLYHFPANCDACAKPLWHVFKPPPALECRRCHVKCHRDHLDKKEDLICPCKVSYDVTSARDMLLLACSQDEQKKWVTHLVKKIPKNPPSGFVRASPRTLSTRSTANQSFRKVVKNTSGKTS
Sequence of Recombinant ROCK2 (O75116 whole entry): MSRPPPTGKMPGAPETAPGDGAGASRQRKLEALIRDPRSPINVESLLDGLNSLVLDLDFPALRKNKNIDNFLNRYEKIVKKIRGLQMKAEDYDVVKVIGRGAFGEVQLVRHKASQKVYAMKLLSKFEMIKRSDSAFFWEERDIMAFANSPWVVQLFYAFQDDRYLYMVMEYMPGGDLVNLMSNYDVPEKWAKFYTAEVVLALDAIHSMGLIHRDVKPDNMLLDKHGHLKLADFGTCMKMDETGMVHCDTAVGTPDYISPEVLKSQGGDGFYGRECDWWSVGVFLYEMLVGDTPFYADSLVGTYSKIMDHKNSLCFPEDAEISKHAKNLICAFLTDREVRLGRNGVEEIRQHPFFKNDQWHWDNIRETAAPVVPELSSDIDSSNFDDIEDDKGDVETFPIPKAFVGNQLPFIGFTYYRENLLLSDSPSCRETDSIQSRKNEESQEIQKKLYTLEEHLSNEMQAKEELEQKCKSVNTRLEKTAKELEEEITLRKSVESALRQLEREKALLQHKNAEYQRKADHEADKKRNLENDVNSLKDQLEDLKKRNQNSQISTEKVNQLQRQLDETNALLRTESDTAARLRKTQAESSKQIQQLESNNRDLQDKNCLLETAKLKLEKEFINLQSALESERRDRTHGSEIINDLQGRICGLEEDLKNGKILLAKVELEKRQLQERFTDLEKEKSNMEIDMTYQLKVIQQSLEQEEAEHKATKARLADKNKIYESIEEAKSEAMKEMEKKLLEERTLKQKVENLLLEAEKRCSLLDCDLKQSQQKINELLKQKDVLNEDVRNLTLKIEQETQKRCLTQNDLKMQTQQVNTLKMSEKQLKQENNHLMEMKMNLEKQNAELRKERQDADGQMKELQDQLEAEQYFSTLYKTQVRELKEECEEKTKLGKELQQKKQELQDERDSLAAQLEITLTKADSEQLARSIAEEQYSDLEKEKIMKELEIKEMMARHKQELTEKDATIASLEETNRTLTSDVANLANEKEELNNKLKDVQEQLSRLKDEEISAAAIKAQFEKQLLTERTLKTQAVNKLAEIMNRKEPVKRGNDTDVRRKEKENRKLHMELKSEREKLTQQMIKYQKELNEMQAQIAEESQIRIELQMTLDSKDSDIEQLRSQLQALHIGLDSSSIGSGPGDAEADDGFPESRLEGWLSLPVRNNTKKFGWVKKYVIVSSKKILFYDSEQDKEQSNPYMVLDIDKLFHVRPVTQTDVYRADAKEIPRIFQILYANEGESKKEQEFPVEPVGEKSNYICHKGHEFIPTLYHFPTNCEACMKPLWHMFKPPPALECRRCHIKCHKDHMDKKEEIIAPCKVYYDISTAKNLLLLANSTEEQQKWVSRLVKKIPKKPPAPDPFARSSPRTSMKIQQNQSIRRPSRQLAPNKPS
Experimental for Recombinant ROCK2: The inhibition potency of compounds against these enzymes was assessed using Lance Ultra Kinase Assay. In brief, recombinant kinases were pre-incubated in the presence or absence of compound at room temperature for 30 minutes. The reaction was initiated by the addition of the ATP (Km) and substrate peptide which could be phosphorylated by kinases in the reaction. After 1 h incubation, the reaction was stopped by the addition of the detection reagent mix containing EDTA. The fluorescence was measured at 615 nm and 665 nm, respectively with excitation wavelength at 320 nm. The calculated signal ratio of 665 nm/615 nm is proportional to the kinase activity.

Consider `N#Cc1cccc(C(CN)C(=O)Nc2cccc3c(-c4cn[nH]c4)c[nH]c23)c1` (racemic) [Example 19, N-(3-(1H-pyrazol-4-yl)-1H-indol-7-yl)-3-amino-2-(3-cyanophenyl)propanamide], for which the IC50 at Recombinant ROCK1 came out at 2.2 nM; on Recombinant ROCK2 it was 0.92 nM. Further, in the test with HepG2 cells, the EC50 is > 50 µM.

Regarding `NCC(C(=O)Nc1cccc2c(-c3cn[nH]c3)c[nH]c12)c1cccnc1` (racemic) [Example 31, N-(3-(1H-pyrazol-4-yl)-1H-indol-7-yl)-3-amino-2-(pyridin-3-yl)propanamide], the IC50 at Recombinant ROCK1 was determined as 1.2 nM; with pMLC2, 31 nM; on Recombinant ROCK2, 0.48 nM. Further, the EC50 in the test with HepG2 cells is > 50 µM.

As to `CNC(=O)OCc1cccc(C(CN)C(=O)Nc2cccc3c(-c4cn[nH]c4)c[nH]c23)c1` (racemic) [Example 49, 3-(1-((3-(1H-pyrazol-4-yl)-1H-indol-7-yl)amino)-3-amino-1-oxopropan-2-yl)benzyl methylcarbamate], the results for the IC50 on Recombinant ROCK1 and at Recombinant ROCK2 were 0.86 nM and 0.65 nM, respectively. Further, the EC50 in the test on HepG2 cells is > 200 µM.

Regarding `NCC(C(=O)Nc1cccc2c(-c3cn[nH]c3)c[nH]c12)c1ccc(C(N)=O)cc1` (racemic) [Example 74, 4-(1-((3-(1H-pyrazol-4-yl)-1H-indol-7-yl)amino)-3-amino-1-oxopropan-2-yl)benzamide], the IC50 was 2 nM at Recombinant ROCK1 and 0.62 nM on Recombinant ROCK2. The EC50 with HepG2 cells is > 200 µM.

Regarding `NCCN1CCN(C(C(=O)Nc2cccc3c(-c4cn[nH]c4)c[nH]c23)c2ccccc2)CC1` (racemic) [Example 105, 2-[4-(2-aminoethyl)piperazin-1-yl]-2-phenyl-N-[3-(1H-pyrazol-4-yl)-1H-indol-7-yl]acetamide], the IC50 at Recombinant ROCK1 is 0.42 nM; in the test on pMLC2, 95 nM; at Recombinant ROCK2, 0.22 nM. The compound further returned an EC50 in the test on HepG2 cells of 23.6 µM.

For `NCC(C(=O)Nc1cccc2c(-c3cn[nH]c3)c[nH]c12)c1ccc(CO)cc1` (single isomer, unassigned) [Example 3, N-(3-(1H-pyrazol-4-yl)-1H-indol-7-yl)-3-amino-2-(4-(hydroxymethyl)phenyl)propanamide], the IC50 stood at 0.33 nM at Recombinant ROCK1, 46 nM with pMLC2, 0.17 nM on Recombinant ROCK2 and 99 nM in the test with pMYPT1. The EC50 with HepG2 cells is > 200 µM.

Regarding `COc1cccc(C(CN)C(=O)Nc2cccc3c(-c4cn[nH]c4)c[nH]c23)c1` (single isomer, unassigned) [Example 18, N-(3-(1H-pyrazol-4-yl)-1H-indol-7-yl)-3-amino-2-(3-methoxyphenyl)propanamide], the IC50 on Recombinant ROCK1 came to 0.3 nM; with pMLC2, 4.2 nM; at Recombinant ROCK2 it was 0.14 nM; in the test with pMYPT1, 5.6 nM. The EC50 with HepG2 cells came to 10.9 µM.

For `N#Cc1cccc(C(CN)C(=O)Nc2cccc3c(-c4cn[nH]c4)c[nH]c23)c1` (single isomer, unassigned) [Example 20, N-(3-(1H-pyrazol-4-yl)-1H-indol-7-yl)-3-amino-2-(3-cyanophenyl)propanamide], the IC50 on Recombinant ROCK1 came to 2.8 nM; in the test with pMLC2, 38 nM; at Recombinant ROCK2, 1.3 nM; with pMYPT1, 41 nM. In addition, the EC50 in the test with HepG2 cells is > 200 µM.

Turning to `NCC(C(=O)Nc1cccc2c(-c3cn[nH]c3)c[nH]c12)C1CCCCC1` (single isomer, unassigned) [Example 23, N-(3-(1H-pyrazol-4-yl)-1H-indol-7-yl)-3-amino-2-cyclohexylpropanamide], the IC50 on Recombinant ROCK1 was found to be 0.19 nM; with pMLC2, 3.5 nM; on Recombinant ROCK2, 0.13 nM; with pMYPT1, 4.3 nM.

As to `NCC(C(=O)Nc1cccc2c(-c3cn[nH]c3)c[nH]c12)C1CCOCC1` (single isomer, unassigned) [Example 26, N-(3-(1H-pyrazol-4-yl)-1H-indol-7-yl)-3-amino-2-(tetrahydro-2H-pyran-4-yl)propanamide], the IC50 on Recombinant ROCK1 worked out at 1.4 nM; in the test with pMLC2 it was 85 nM; on Recombinant ROCK2 it was 0.96 nM; in the test with pMYPT1, 153 nM. Also, the EC50 in the test with HepG2 cells was > 200 µM.

As for `NCC(C(=O)Nc1cccc2c(-c3cn[nH]c3)c[nH]c12)c1cccnc1` (single isomer, unassigned) [Example 32, N-(3-(1H-pyrazol-4-yl)-1H-indol-7-yl)-3-amino-2-(pyridin-3-yl)propanamide], the IC50 was determined as 0.55 nM on Recombinant ROCK1, 42 nM with pMLC2, 0.24 nM at Recombinant ROCK2 and 62 nM in the test with pMYPT1. Further, the EC50 with HepG2 cells was > 200 µM.

In the case of `CN1CCC(C(C(=O)Nc2cccc3c(-c4cn[nH]c4)c[nH]c23)c2ccccc2)CC1` (single isomer, unassigned) [Example 45, N-(3-(1H-pyrazol-4-yl)-1H-indol-7-yl)-2-(1-methylpiperidin-4-yl)-2-phenylacetamide], the IC50 was found to be 0.53 nM on Recombinant ROCK1, 29 nM with pMLC2, 0.27 nM on Recombinant ROCK2 and 11 nM with pMYPT1.

Turning to `NCC(C(=O)Nc1cccc2c(-c3cn[nH]c3)c[nH]c12)c1ccc(CO)nc1` (single isomer, unassigned) [Example 60, N-(3-(1H-pyrazol-4-yl)-1H-indol-7-yl)-3-amino-2-(6-(hydroxymethyl)pyridin-3-yl)propanamide], the IC50 at Recombinant ROCK1 amounted to 2.3 nM; on Recombinant ROCK2, 0.7 nM. Also, in the test on HepG2 cells, the EC50 is > 50 µM.

Regarding `COc1cccc(C(CN)NC(=O)c2cccc3c(-c4cn[nH]c4)c[nH]c23)c1` (single isomer, unassigned) [Example 136, N-(2-amino-1-(3-methoxyphenyl)ethyl)-3-(1H-pyrazol-4-yl)-1H-indole-7-carboxamide], the IC50 at Recombinant ROCK1 stood at 0.62 nM; in the test on pMLC2, 5.1 nM; on Recombinant ROCK2, 0.24 nM; in the test with pMYPT1, 1.9 nM.

Take `NC[C@@H](C(=O)Nc1cccc2c(-c3cn[nH]c3)c[nH]c12)c1ccc(COC(=O)CCCCCO[N+](=O)[O-])cc1` [Example 10, [4-[(1S)-1-(aminomethyl)-2-oxo-2-[[3-(1H-pyrazol-4-yl)-1H-indol-7-yl]amino]ethyl]phenyl]methyl 6-nitrooxyhexanoate]: the half-inhibitory concentration (IC50) at Recombinant ROCK1 came out at 1.6 nM; in the test on pMLC2, 8.1 nM; with pMYPT1 it was 10 nM. Also, in the test on HepG2 cells, the 50% effective concentration (EC50) is > 66.6 µM.

For the compound `NCC(C(=O)Nc1cccc2c(-c3cn[nH]c3)c[nH]c12)C1CCCOC1` (stereo not drawn) [Example 91, 3-amino-2-(oxan-3-yl)-N-[3-(1H-pyrazol-4-yl)-1H-indol-7-yl]propanamide], the IC50 was 1.2 nM at Recombinant ROCK1 and 0.75 nM on Recombinant ROCK2. This compound returned an EC50 with HepG2 cells of 24.4 µM.

With `NC[C@@H](NC(=O)c1cccc2c(-c3cn[nH]c3)n[nH]c12)c1ccccc1` [Example 135, N-[(1S)-2-amino-1-phenyl-ethyl]-3-(1H-pyrazol-4-yl)-1H-indazole-7-carboxamide], the IC50 at Recombinant ROCK1 came out at 4.5 nM; in the test with pMLC2, 1.3 nM; at Recombinant ROCK2 it was 1.2 nM; with pMYPT1, 26 nM.

As for `Cc1ccc(C(=O)OCc2ccc([C@@H](CN)C(=O)Nc3ccc4cnccc4c3)cc2)c(C)c1` [Netarsudil], in the test on HepG2 cells, the EC50 worked out at 0.89 µM.

What is called IC50 is the concentration that gives 50% inhibition. By EC50 is commonly meant the midpoint of the concentration-response curve. High values mean a need for much substance, low ones an effect from little substance.

The record behind these values is patent US20250346616A1 (DIZAL (JIANGSU) PHARMACEUTICAL CO., LTD., priority 2022, published 2025).
